Consider twelve compounds from paper PMC9841533, “Microtubule-Stabilizing 1,2,4-Triazolo[1,5-a]pyrimidines as Candidate Therapeutics for Neurodegenerative Disease: Matched Molecular Pair Analyses and Computational Studies Reveal New Structure–Activity Insights” (Journal of Medicinal Chemistry, 2022).

Counter-ions that a name gives are not always drawn. Like-named read-outs stand apart in the source and are kept apart here.

Test [1] has as its system acetylated α-tubulin (AcTub) levels in QBI293 cells. Also noted: method as in PMID 26980057, PMID 33411523. Conditions: cited from earlier work; for Class (cellular phenotype): activity reported in previous studies.
Test [2] has the same test system. The experiment in a line: QBI293 cell assay of MT stabilization: acetylated α-tubulin ELISA. In kind it is cell-based. As to the method:
(§1) All test compounds were initially screened in the same cell-based (QBI293) assay of MT stabilization used in our previous SAR studies[11],[12] so as to allow direct comparison with literature data. Changes in levels of acetylated α-tubulin (AcTub) and total α-tubulin (α-Tub), relative to vehicle-treated negative control cells, were determined after 4 h of incubation with test compounds at 1 and 10 μM. To account for possible day-to-day differences in the responsiveness of cells to MT-stabilizing treatment, compound-dependent changes in AcTub levels relative to DMSO-treated cells were also normalized to the corresponding changes caused by 100 nM of 5 that was used as a positive control. In addition, docking studies, binding free energy calculations, and in selected cases, molecular dynamic simulations were conducted using an X-ray structure of the vinca and seventh sites (PDB: 5NJH,[10]7CLD[13]). […] For selected compounds, additional studies included testing in the QBI293 cell AcTub assay at additional compound concentrations, and/or evaluation of test compounds for their ability to prevent MT collapse in primary neuron cultures treated with the phosphatase inhibitor, okadaic […] (OA). Finally, cytotoxicity studies in QBI293 and HeLa cells were also conducted for representative examples (Supporting Information).
(§2) Compound-induced changes in acetylated-tubulin and α-tubulin in QBI293 cells or primary mouse or rat neurons were as previously described.[11],[12] […] The plated cells were incubated overnight, after which the medium was aspirated and fresh medium containing vehicle (0.25–0.3% DMSO) or test compound was added. Test compounds were prepared as 4–20 mM stock solutions in 100% DMSO, and these were diluted in culture medium prior to addition to the QBI293 cells. After 4 h incubation, whole-cell extracts were prepared from the QBI293 cells as described[11] and the supernatant fraction from each sample was assessed for protein content by bicinchoninic acid (BCA) assay. The amount of acetyl-tubulin (AcTub) and α-tubulin (αTub) within the cell extract samples was quantified using specific enzyme-linked immunosorbent assays (ELISA), as previously described.[11] Acetyl-tubulin levels were determined in a similar manner in rat or mouse cortical neuron cultures in which embryonic dissociated cortical neurons were plated at 3 × 10^5 cells/well in poly-D-lysine-coated 12-well plates, essentially as previously described.[11] […] Culture homogenates were prepared for the determination of AcTub levels by ELISA as previously described.[11]
Background: ELISA stands for enzyme-linked immunosorbent assay.

In test [3] the test system is total α-tubulin (α-Tub) levels in QBI293 cells. Nature of the test: QBI293 cell assay: total α-tubulin ELISA. The format is cell-based. As for the experimental part:
as §1, §2

The test system is the same in test [4]. Also noted: method as in PMID 26980057, PMID 33411523. Conditions: 4 h incubation, reported in previous studies, cited from earlier work.
Setting [5] is: 4 h, 1 uM compound, read-out: AcTub (1uM).
Setting [6] is: 4 h, 10 uM compound, read-out: AcTub (10 uM).
The mark [7] stands for this setting: 4 h, 1 uM compound, read-out: AlfaTub (1uM).
The mark [8] stands for this setting: 4 h, 10 uM compound, read-out: AlfaTub (10 uM).
Setting [9] is: 4 h incubation, reported in previous studies.
Setting [10] is: 4 h incubation, 1 μM, read-out: AcTub 1 μM, fold-change compared to vehicle (DMSO)-treated cells.
Where [11] appears, read: 4 h incubation, 10 μM, read-out: AcTub 10 μM, fold-change compared to vehicle (DMSO)-treated cells.
Setting [12] is: 4 h incubation, 1 μM, read-out: α-Tub 1 μM, fold-change compared to vehicle (DMSO)-treated cells.
Where [13] appears, read: 4 h incubation, 10 μM, read-out: α-Tub 10 μM, fold-change compared to vehicle (DMSO)-treated cells.

For `CC(C)[C@@H](C)Nc1c(-c2c(F)cc(F)cc2F)c(Cl)nc2ncnn12` [Compound 1], in test [1], the “Class (cellular phenotype)” value is “I”.
Take `CC(C)[C@H](C)Nc1c(-c2c(F)cc(F)cc2F)c(Cl)nc2ncnn12` [Compound 7]: in test [1], the “Class (cellular phenotype)” value is reported as “I”.
Consider `CC(C)[C@@H](Nc1c(-c2c(F)cc(F)cc2F)c(Cl)nc2ncnn12)C(F)(F)F` [Compound 8], for which, in test [2] (1 uM compound), the “AcTub (1 uM - normalized)” value stood at 0.16. In test [2] (10 uM compound), the “AcTub (10 uM - normalized)” value was 0.73. Also, the fold induction at 1 µM is 2.79 in test [2] (setting [5]) and 1.1 in test [3] (setting [7]). The figures for the fold induction at 10 µM in test [2] (setting [6]) and in test [3] (setting [8]) were 13 and 0.61, respectively. In addition, the “AcTub 1 μM, fold-change compared to vehicle (DMSO)-treated cells” value in test [1] (setting [9]) is 2.79 ± 0.04 fold-change. Moreover, the “AcTub 10 μM, fold-change compared to vehicle (DMSO)-treated cells” value in test [1] (4 h incubation, 10 μM, reported in previous studies) is 13.0 ± 0.54 fold-change. Also, in test [4] (1 μM), the “α-Tub 1 μM, fold-change compared to vehicle (DMSO)-treated cells” value was 1.10 ± 0.09 fold-change.
Take `C[C@@H](Nc1c(-c2c(F)cc(F)cc2F)c(Cl)nc2ncnn12)C(C)(C)C` [Compound 10]: in test [1], the “Class (cellular phenotype)” value was “I”.
As for `C[C@H](Nc1c(-c2c(F)cc(F)cc2F)c(Cl)nc2ncnn12)C(C)(C)C` [Compound 12], the “Class (cellular phenotype)” value in test [1] was “I”.
Consider `CNCC#Cc1cc(F)c(-c2c(Cl)nc3ncnn3c2N[C@H](C)C(C)C)c(F)c1` [Compound 51, (R)-5-Chloro-6-(2,6-difluoro-4-(3-(methylamino)prop-1-yn-1-yl)phenyl)-N-(3-methylbutan-2-yl)-[1,2,4]triazolo[1,5-a]pyrimidin-7-amine Hydrochloride], for which the “AcTub (1 uM - normalized)” value in test [2] (1 uM compound) was 0.27. Also, the “AcTub (10 uM - normalized)” value in test [2] (10 uM compound) is listed as 0.79. The fold induction at 1 µM in test [2] (setting [5]) was determined as 1.98; in test [2] (setting [10]), 1.98 ± 0.09; in test [3] (setting [7]), 0.96; in test [3] (setting [12]), 0.96 ± 0.01. For the same compound, the fold induction at 10 µM worked out at 5.92 in test [2] (setting [6]), 5.92 ± 0.14 in test [2] (setting [11]), 0.96 in test [3] (setting [8]) and 0.96 ± 0.03 in test [3] (setting [13]). In addition, in test [2] (4 h incubation, 1 μM), the “AcTub 1 μM, fold-change compared to positive control compound 5 (100 nM) (in parentheses)” value (“AcTub 1 μM, fold-change … (in parentheses)” for short) was determined as 0.27 fold-change. The “AcTub 10 μM, fold-change compared to positive control compound 5 (100 nM) (in parentheses)” value (“AcTub 10 μM, fold-change … (in parentheses)” for short) in test [2] (4 h incubation, 10 μM) was determined as 0.79 fold-change.
`CC(C)[C@@H](C)Nc1c(-c2c(F)cc(C#CCCN(C)C)cc2F)c(Cl)nc2ncnn12` [Compound 52, (R)-5-Chloro-6-(4-(4-(dimethylamino)but-1-yn-1-yl)-2,6-difluorophenyl)-N-(3-methylbutan-2-yl)-[1,2,4]triazolo[1,5-a]pyrimidin-7-amine 2,2,2-Trifluoroacetate]: the “AcTub (1 uM - normalized)” value in test [2] (1 uM compound) was found to be 1.75. Besides, the “AcTub (10 uM - normalized)” value in test [2] (10 uM compound) was 1.24. Also, the fold induction at 1 µM in test [2] (setting [5]) was 9.5; in test [2] (setting [10]), 9.5 ± 0.22; in test [3] (setting [7]), 1; in test [3] (setting [12]), 1 ± 0.02. Also, the fold induction at 10 µM in test [2] (setting [6]) turned out to be 6.7; in test [2] (setting [11]) it was 6.7 ± 0.5; in test [3] (setting [8]), 1.15; in test [3] (setting [13]), 1.15 ± 0.02. For the same compound, the “AcTub 1 μM, fold-change … (in parentheses)” value in test [2] (4 h incubation, 1 μM) came out at 1.75 fold-change. In test [2] (4 h incubation, 10 μM), the “AcTub 10 μM, fold-change … (in parentheses)” value is 1.24 fold-change.
Regarding `C[C@@H](Nc1c(-c2c(F)cc(C#CCN(C)C)cc2F)c(Cl)nc2ncnn12)C(C)(C)C` [Compound 55, (R)-5-Chloro-6-(4-(3-(dimethylamino)prop-1-yn-1-yl)-2,6-difluorophenyl)-N-(3,3-dimethylbutan-2-yl)-[1,2,4]triazolo[1,5-a]pyrimidin-7-amine], in test [2] (1 uM compound), the “AcTub (1 uM - normalized)” value is listed as 0.45. For the same compound, the “AcTub (10 uM - normalized)” value in test [2] (10 uM compound) turned out to be 1.43. The fold induction at 1 µM was determined as 1.36 in test [2] (setting [5]), 1.36 ± 0.08 in test [2] (setting [10]), 1 in test [3] (setting [7]) and 1 ± 0.05 in test [3] (setting [12]). The fold induction at 10 µM in test [2] (setting [6]) worked out at 4.32; in test [2] (setting [11]), 4.32 ± 0.28; in test [3] (setting [8]), 0.84; in test [3] (setting [13]), 0.87 ± 0.01. The “AcTub 1 μM, fold-change … (in parentheses)” value in test [2] (4 h incubation, 1 μM) was 0.45 fold-change. In test [2] (4 h incubation, 10 μM), the “AcTub 10 μM, fold-change … (in parentheses)” value stood at 1.43 fold-change.
Regarding `C[C@@H](Nc1c(-c2c(F)cc(C#CCCN)cc2F)c(Cl)nc2ncnn12)C(C)(C)C` [Compound 57, (R)-6-(4-(4-Aminobut-1-yn-1-yl)-2,6-difluorophenyl)-5-chloro-N-(3,3-dimethylbutan-2-yl)-[1,2,4]triazolo[1,5-a]pyrimidin-7-amine Hydrochloride], the “AcTub (1 uM - normalized)” value in test [2] (1 uM compound) turned out to be 0.83. Moreover, in test [2] (10 uM compound), the “AcTub (10 uM - normalized)” value was determined as 1.21. Besides, the fold induction at 1 µM in test [2] (setting [5]) was 2.49; in test [2] (setting [10]), 2.49 ± 0.17; in test [3] (setting [7]), 0.96; in test [3] (setting [12]), 0.96 ± 0.026. Also, the fold induction at 10 µM in test [2] (setting [6]) amounted to 3.66; in test [2] (setting [11]), 3.66 ± 0.58; in test [3] (setting [8]), 0.91; in test [3] (setting [13]), 0.91 ± 0.12. For the same compound, in test [2] (4 h incubation, 1 μM), the “AcTub 1 μM, fold-change … (in parentheses)” value is listed as 0.83 fold-change. Further, in test [2] (4 h incubation, 10 μM), the “AcTub 10 μM, fold-change … (in parentheses)” value was determined as 1.21 fold-change.
In the case of `CNCC#Cc1cc(F)c(-c2c(Cl)nc3ncnn3c2N[C@H](C)C(C)(C)C)c(F)c1` [Compound 59, (R)-5-Chloro-6-(2,6-difluoro-4-(3-(methylamino)prop-1-yn-1-yl)phenyl)-N-(3,3-dimethylbutan-2-yl)-[1,2,4]triazolo[1,5-a]pyrimidin-7-amine Hydrochloride], in test [2] (1 uM compound), the “AcTub (1 uM - normalized)” value is on record as 0.81. Also, in test [2] (10 uM compound), the “AcTub (10 uM - normalized)” value is listed as 1.16. In addition, the fold induction at 1 µM in test [2] (setting [5]) worked out at 6.03; in test [2] (setting [10]), 6.03 ± 0.64; in test [3] (setting [7]), 0.93; in test [3] (setting [12]) it was 0.93 ± 0.02. In addition, the fold induction at 10 µM was 8.67 in test [2] (setting [6]), 8.67 ± 0.16 in test [2] (setting [11]), 1 in test [3] (setting [8]) and 1 ± 0.03 in test [3] (setting [13]). Besides, in test [2] (4 h incubation, 1 μM), the “AcTub 1 μM, fold-change … (in parentheses)” value was determined as 0.81 fold-change. The “AcTub 10 μM, fold-change … (in parentheses)” value in test [2] (4 h incubation, 10 μM) came to 1.16 fold-change.
On to `C[C@@H](Nc1c(-c2c(F)cc(F)cc2F)c(Cl)nc2ncnn12)C1(C)N=N1` [Compound 63], for which, in test [2] (1 uM compound), the “AcTub (1 uM - normalized)” value amounted to 0.11. The “AcTub (10 uM - normalized)” value in test [2] (10 uM compound) came out at 0.36. The fold induction at 1 µM in test [2] (setting [5]) is 1.42; in test [3] (setting [7]), 0.92. The fold induction at 10 µM in test [2] (setting [6]) is 4.28; in test [3] (setting [8]), 0.89. In addition, the “AcTub 1 μM, fold-change compared to vehicle (DMSO)-treated cells” value in test [1] (setting [9]) is reported as 1.42 ± 0.08 fold-change. In addition, the “Class (cellular phenotype)” value in test [1] is on record as “I”.
Consider `C[C@@H](Nc1c(-c2c(F)cc(OCCCN(C)C)cc2F)c(Cl)nc2ncnn12)C1(C)N=N1` [Compound 66], for which the “AcTub (1 uM - normalized)” value in test [2] (1 uM compound) turned out to be 1.68. The “AcTub (10 uM - normalized)” value in test [2] (10 uM compound) is given as 0.07. For the same compound, the fold induction at 1 µM was 21.7 in test [2] (setting [5]) and 0.73 in test [3] (setting [7]). Besides, the fold induction at 10 µM in test [2] (setting [6]) is 0.93; in test [3] (setting [8]), 1.01. The “α-Tub 10 μM, fold-change compared to vehicle (DMSO)-treated cells” value in test [4] (10 μM) is on record as 1.01 ± 0.05 fold-change.
